Data as given in patent publication US5006528A, “Carbostyril derivatives” (Otsuka Pharmaceutical Co., Ltd., priority 1988, dated 1991).
Read-outs that look alike come from different tables or passages of the source.

Experiments:
dopaminergic receptor = experiment: Anti-apomorphine activity in mouse; conditions: for ED50: Mus musculus, po, 1 h, read-out: Anti-apomorphine activity (ED50 mg/kg) (A); for (B)/(A): ratio of anti-epinephrine ED50 (B) to anti-apomorphine ED50 (A)
α-blocking activity = experiment: Anti-epinephrine lethal activity in mouse; type: in vivo; conditions: read-out: Anti-epinephrine activity (ED50 mg/kg) (B)
[1] = mouse, oral, 1 hour before lethal dose (1.5 mg/kg) of epinephrine intravenously, survival at 4 hours

Row | Compound | ED50 (dopaminergic receptor) | (B)/(A) (dopaminergic receptor) | ED50 (α-blocking activity; Mus musculus, po, 4 h) | ED50 (α-blocking activity; [1])
1 | O=C1CCc2ccc(OCCCCN3CCN(c4cccc(Cl)c4Cl)CC3)cc2N1 [Test compound 1, 7-{4-[4-(2,3-dichlorophenyl)-1-piperazinyl]butoxy}-3,4-dihydrocarbostyril] | 0.18 mg/kg | > 711 | > 128 mg/kg | 
2 | Cc1c(N2CCN(CCCCOc3ccc4c(c3)NC(=O)CC4)CC2)cccc1[N+](=O)[O-] [Test compound 2] | 0.3 mg/kg | > 426.7 |  | > 128 mg/kg
3 | Cc1cccc(N2CCN(CCCCOc3ccc4c(c3)NC(=O)CC4)CC2)c1Cl [Test compound 3] | 0.4 mg/kg | > 160 |  | > 64 mg/kg
4 | Cc1cccc(N2CCN(CCCCOc3ccc4c(c3)NC(=O)CC4)CC2)c1Br [Test compound 4] | 0.4 mg/kg | > 160 |  | > 64 mg/kg
5 | O=C1CCc2ccc(OCCCCN3CCN(c4cc(Cl)cc(Cl)c4)CC3)cc2N1 [Test compound 5] | 0.5 mg/kg | > 256 |  | > 128 mg/kg
6 | O=C1CCc2ccc(OCCCCN3CCN(c4cc(Cl)cc(Cl)c4Cl)CC3)cc2N1 [Test compound 7] | 0.4 mg/kg | > 320 |  | > 128 mg/kg
7 | COc1ccccc1N1CCN(CCCCOc2ccc3c(c2)NC(=O)CC3)CC1 [Test compound 8] | 0.2 mg/kg | 12.5 |  | 2.5 mg/kg
8 | O=C1CCc2ccc(OCCCCN3CCN(c4cccc(Br)c4Br)CC3)cc2N1 [Test compound 9] | 0.6 mg/kg | > 426.7 |  | > 256 mg/kg
9 | O=c1ccc2ccc(OCCCCN3CCN(c4cccc(Cl)c4Cl)CC3)cc2[nH]1 [Test compound 10] | 0.36 mg/kg | > 355 |  | > 128 mg/kg
10 | CCOc1ccccc1N1CCN(CCCCOc2ccc3ccc(=O)[nH]c3c2)CC1 [Test compound 11] | 0.12 mg/kg | 31.6 |  | 3.8 mg/kg
